The assay addresses T1, human vasopressin V1a receptor subtype (Homo sapiens, UniProt P37288).
T1 construct: host or cells: CHO cells (pZeoSV vector for the Thibonnier line)
Kind of assay: Vasopressin binding in Chinese Hamster Ovary cell membranes expressing human vasopressin V1a subtype receptors. The note with it: 100 nM, CHO cell membranes, [3H]Manning ligand, values without parentheses. Put shortly: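 Displacement of [3H]Manning ligand (8 nM working solution) from human V1a receptors in CHO cell membranes, 25–50 μg protein per well. Incubation ran 60 min at room temperature in 50 mM Tris-HCl pH 7.4 with protease inhibitors, followed by filtration and scintillation counting. Results are given as IC50 or percent inhibition.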

T1 sequence (P37288 whole entry): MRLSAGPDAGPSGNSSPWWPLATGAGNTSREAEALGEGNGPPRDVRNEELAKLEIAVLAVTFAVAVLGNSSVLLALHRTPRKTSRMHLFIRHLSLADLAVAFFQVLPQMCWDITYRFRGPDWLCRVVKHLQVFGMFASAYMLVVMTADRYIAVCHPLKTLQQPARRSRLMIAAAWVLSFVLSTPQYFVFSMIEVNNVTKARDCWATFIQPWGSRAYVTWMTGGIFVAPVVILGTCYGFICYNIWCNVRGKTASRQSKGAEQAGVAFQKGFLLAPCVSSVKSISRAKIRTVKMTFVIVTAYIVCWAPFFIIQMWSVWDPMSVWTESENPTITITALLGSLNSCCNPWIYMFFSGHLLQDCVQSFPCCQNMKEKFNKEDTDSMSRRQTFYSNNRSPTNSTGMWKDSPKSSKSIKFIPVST

As to `Cc1ccccc1-c1ccc(C(=O)N2Cc3ccc(C(=O)N4CCN(CCN5CCOCC5)CC4)n3Cc3ccccc32)cc1C` [Example 218, {10-[(2,2′-Dimethyl[1,1′-biphenyl]-4-yl)carbonyl]-10,11-dihydro-5H-pyrrolo[2,1-c][1,4]benzodiazepin-3-yl}{4-[2-(4-morpholinyl)ethyl]-1-piperazinyl}methanone], the inhibition at 0.1 µM worked out at 45%.

Consider `C=CCN1CCN(C(=O)c2ccc3n2Cc2ccccc2N(C(=O)c2ccc(-c4ccccc4OC)c(C)c2)C3)CC1` [Example 222, (4-Allyl-1-piperazinyl){10-[(2′-methoxy-2-methyl[1,1′-biphenyl]-4-yl)carbonyl]-10,11-dihydro-5H-pyrrolo[2,1-c][1,4]benzodiazepin-3-yl}methanone], for which the inhibition at 0.1 µM was determined as 15%.

As for `C=CCN1CCN(C(=O)c2ccc3n2Cc2ccccc2N(C(=O)c2ccc(-c4cccc(OC)c4)c(C)c2)C3)CC1` [Example 223, (4-Allyl-1-piperazinyl){10-[(3′-methoxy-2-methyl[1,1′-biphenyl]-4-yl)carbonyl]-10,11-dihydro-5H-pyrrolo[2,1-c][1,4]benzodiazepin-3-yl}methanone], the inhibition at 0.1 µM was determined as 12%.

`C=CCN1CCN(C(=O)c2ccc3n2Cc2ccccc2N(C(=O)c2ccc(-c4ccccc4C)cc2)C3)CC1` [Example 224, (4-Allyl-1-piperazinyl){10-[(2′-methyl[1,1′-biphenyl]-4-yl)carbonyl]-10,11-dihydro-5H -pyrrolo[2,1-c][1,4]benzodiazepin-3-yl}methanone]: the inhibition at 0.1 µM worked out at 1%.

On to `C=CCN1CCN(C(=O)c2ccc3n2Cc2ccccc2N(C(=O)c2ccc(-c4ccccc4C)c(OC)c2)C3)CC1` [Example 225, (4-Allyl-1-piperazinyl){10-[(2-methoxy-2′-methyl[1,1′-biphenyl]-4-yl)carbonyl]-10,11-dihydro-5H-pyrrolo[2,1-c][1,4]benzodiazepin-3-yl}methanone], for which the inhibition at 0.1 µM was determined as 35%.

`C=CCN1CCN(C(=O)c2ccc3n2Cc2ccccc2N(C(=O)c2cc(Cl)c(-c4cccc(OC)c4)cc2OC)C3)CC1` [Example 226, (4-Allyl-1-piperazinyl){10-[(6-chloro-3,3′-dimethoxy[1,1′-biphenyl]-4-yl)carbonyl]-10,11-dihydro-5H-pyrrolo[2,1-c][1,4]benzodiazepin-3-yl}methanone]: the inhibition at 0.1 µM is 3%.

Take `C=CCN1CCN(C(=O)c2ccc3n2Cc2ccccc2N(C(=O)c2ccc(-c4ccccc4OC)c(OC)c2)C3)CC1` [Example 227, (4-Allyl-1-piperazinyl){10-[(2,2′-dimethoxy[1,1′-biphenyl]-4-yl)carbonyl]-10,11-dihydro-5H -pyrrolo[2,1-c][1,4]benzodiazepin-3-yl}methanone]: the inhibition at 0.1 µM was found to be 2%.

For `C=CCN1CCN(C(=O)c2ccc3n2Cc2ccccc2N(C(=O)c2ccc(-c4cccc(OC)c4)c(OC)c2)C3)CC1` [Example 228, (4-Allyl-1-piperazinyl){10-[(2,3′-dimethoxy[1,1′-biphenyl]-4-yl)carbonyl]-10,11-dihydro-5H -pyrrolo[2,1-c][1,4]benzodiazepin-3-yl}methanone], the inhibition at 0.1 µM was determined as 22%.

Consider `C=CCN1CCN(C(=O)c2ccc3n2Cc2ccccc2N(C(=O)c2ccc(-c4cccc5ccccc45)cc2Cl)C3)CC1` [Example 229, (4-Allyl-1-piperazinyl){10-[2-chloro-4-(1-naphthyl)benzoyl]-10,11-dihydro-5H-pyrrolo[2,1-c][1,4]benzodiazepin-3-yl}methanone], for which the inhibition at 0.1 µM amounted to 8%.

As for `C=CCN1CCN(C(=O)c2ccc3n2Cc2ccccc2N(C(=O)c2ccc(-c4ccccc4C(F)(F)F)c(C)c2)C3)CC1` [Example 230, (4-Allyl-1-piperazinyl)(10-{[2-methyl-2′-(trifluoromethyl)[1,1′-biphenyl]-4-yl]carbonyl}-10,11-dihydro-5H-pyrrolo[2,1-c][1,4]benzodiazepin-3-yl)methanone], the inhibition at 0.1 µM is 3%.

`C=CCN1CCN(C(=O)c2ccc3n2Cc2ccccc2N(C(=O)c2ccc(-c4cccc5ccccc45)c(OC)c2)C3)CC1` [Example 231, (4-Allyl-1-piperazinyl){10-[3-methoxy-4-(1-naphthyl)benzoyl]-10,11-dihydro-5H -pyrrolo[2,1-c][1,4]benzodiazepin-3-yl}methanone]: the inhibition at 0.1 µM came out at 7%.

As to `COc1ccccc1-c1ccc(C(=O)N2Cc3ccc(C(=O)N4CCN(C(C)C)CC4)n3Cc3ccccc32)cc1C` [Example 232, (4-Isopropyl-1-piperazinyl){10-[(2′-methoxy-2-methyl[1,1′-biphenyl]-4-yl)carbonyl]-10,11-dihydro-5H-pyrrolo[2,1-c][1,4]benzodiazepin-3-yl}methanone], the inhibition at 0.1 µM stood at 13%.

For the compound `Cc1ccccc1-c1ccc(C(=O)N2Cc3ccc(C(=O)N4CCN(C(C)C)CC4)n3Cc3ccccc32)cc1C` [Example 233, {10-[(2,2′-Dimethyl[1,1′-biphenyl]-4-yl)carbonyl]-10,11-dihydro-5H-pyrrolo[2,1-c][1,4]benzodiazepin-3-yl}(4-isopropyl-1-piperazinyl)methanone], the inhibition at 0.1 µM amounted to 31%.

As for `COc1ccccc1-c1ccc(C(=O)N2Cc3ccc(C(=O)N4CCN(C(C)C)CC4)n3Cc3ccccc32)cc1` [Example 234, (4-Isopropyl-1-piperazinyl){10-[(2′-methoxy[1,1′-biphenyl]-4-yl)carbonyl]-10,11-dihydro-5H-pyrrolo[2,1-c][1,4]benzodiazepin-3-yl}methanone], the inhibition at 0.1 µM worked out at 26%.

Turning to `COc1cccc(-c2ccc(C(=O)N3Cc4ccc(C(=O)N5CCN(C(C)C)CC5)n4Cc4ccccc43)cc2C)c1` [Example 235, (4-Isopropyl-1-piperazinyl){10-[(3′-methoxy-2-methyl[1,1′-biphenyl]-4-yl)carbonyl]-10,11-dihydro-5H-pyrrolo[2,1-c][1,4]benzodiazepin-3-yl}methanone], the inhibition at 0.1 µM worked out at 9%.

Turning to `COc1cc(C(=O)N2Cc3ccc(C(=O)N4CCN(C(C)C)CC4)n3Cc3ccccc32)ccc1-c1cccc2ccccc12` [Example 236, (4-Isopropyl-1-piperazinyl){10-[3-methoxy-4-(1-naphthyl)benzoyl]-10,11-dihydro-5H -pyrrolo[2,1-c][1,4]benzodiazepin-3-yl}methanone], the inhibition at 0.1 µM was determined as 6%.

As for `COc1cc(C(=O)N2Cc3ccc(C(=O)N4CCN(C(C)C)CC4)n3Cc3ccccc32)ccc1-c1ccccc1C` [Example 237, (4-isopropyl-1-piperazinyl){10-[(2-methoxy-2′-methyl[1,1′-biphenyl]-4-yl)carbonyl]-10,11-dihydro-5H-pyrrolo[2,1-c][1,4]benzodiazepin-3-yl}methanone], the inhibition at 0.1 µM was found to be 39%.

Consider `COc1cc(-c2ccccc2C)c(Cl)cc1C(=O)N1Cc2ccc(C(=O)N3CCN(C(C)C)CC3)n2Cc2ccccc21` [Example 238, {10-[(6-Chloro-3-methoxy-2′-methyl[1,1′-biphenyl]-4-yl)carbonyl]-10,11-dihydro-5H -pyrrolo[2,1-c][1,4]benzodiazepin-3-yl}(4-isopropyl-1-piperazinyl)methanone], for which the inhibition at 0.1 µM was 3%.

Regarding `COc1cccc(-c2cc(OC)c(C(=O)N3Cc4ccc(C(=O)N5CCN(C(C)C)CC5)n4Cc4ccccc43)cc2Cl)c1` [Example 239, {10-[(6-Chloro-3,3′-dimethoxy[1,1′-biphenyl]-4-yl)carbonyl]-10,11-dihydro-5H-pyrrolo[2,1-c][1,4]benzodiazepin-3-yl}(4-isopropyl-1-piperazinyl)methanone], the inhibition at 0.1 µM was found to be 2%.

In the case of `Cc1cc(C(=O)N2Cc3ccc(C(=O)N4CCN(C(C)C)CC4)n3Cc3ccccc32)ccc1-c1ccccc1C(F)(F)F` [Example 240, (4-Isopropyl-1-piperazinyl)(10-{[2-methyl-2′-(trifluoromethyl)[1,1′-biphenyl]-4-yl]carbonyl}-10,11-dihydro-5H-pyrrolo[2,1-c][1,4]benzodiazepin-3-yl)methanone], the inhibition at 0.1 µM amounted to 1%.

Take `COc1ccccc1-c1ccc(C(=O)N2Cc3ccc(C(=O)N4CCN(C(C)C)CC4)n3Cc3ccccc32)cc1OC` [Example 241, {10-[(2,2′-Dimethoxy[1,1-biphenyl]4-yl)carbonyl]-10,11-dihydro-5H-pyrrolo[2,1-c][1,4]benzodiazepin-3-yl}(4-isopropyl-1-piperazinyl)methanone]: the inhibition at 0.1 µM was -4%.

With `COc1cccc(-c2ccc(C(=O)N3Cc4ccc(C(=O)N5CCN(C(C)C)CC5)n4Cc4ccccc43)cc2OC)c1` [Example 242, {10-[(2,3′-Dimethoxy[1,1′-biphenyl]-4-yl)carbonyl]-10,11-dihydro-5H-pyrrolo[2,1-c][1,4]benzodiazepin-3-yl}(4-isopropyl-1-piperazinyl)methanone], the inhibition at 0.1 µM came to 33%.

One may read the inhibition as the relative decrease from the control value, in per cent.

These data come from patent US7109193B2, “Tricyclic diazepines tocolytic oxytocin receptor antagonists” (Wyeth, priority 2001, dated 2006).
